From ChEMBL document CHEMBL5252594
Active and inactive are the calls of the source.

What was measured:
Format in all cases: functional, organism-based
Aedes aegypti [1] = experiment: Larvicidal activity against Aedes aegypti Rockefeller strain L3 Larvae assessed as mortality at 90 ug/ml measured after 24 hrs; details: dose 90.0 µg/ml
Aedes aegypti [2] = experiment: Larvicidal activity against Aedes aegypti Rockefeller strain L3 Larvae assessed as mortality at 90 ug/ml measured after 48 hrs; details: dose 90.0 µg/ml
Aedes aegypti [3] = experiment: Larvicidal activity against Aedes aegypti Rockefeller strain L3 Larvae assessed as mortality at 90 ug/ml measured after 72 hrs; details: dose 90.0 µg/ml
Aedes aegypti [4] = experiment: Larvicidal activity against Aedes aegypti Rockefeller strain L3 Larvae assessed as mortality at 150 ug/ml measured after 24 hrs; details: dose 150.0 µg/ml
Aedes aegypti [5] = experiment: Larvicidal activity against Aedes aegypti Rockefeller strain L3 Larvae assessed as mortality at 150 ug/ml measured after 48 hrs; details: dose 150.0 µg/ml
Aedes aegypti [6] = experiment: Larvicidal activity against Aedes aegypti Rockefeller strain L3 Larvae assessed as mortality at 150 ug/ml measured after 72 hrs; details: dose 150.0 µg/ml

Measured: Activity

O=C(/C=C/c1ccc(O)c(O)c1)O[C@@H]1C[C@](O)(C(=O)O)C[C@@H](OC(=O)/C=C/c2ccc(O)c(O)c2)[C@H]1O
inactive: all assays above
